Assay results: PubChem BioAssay (NCI)
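Assay format: 96-well plates, 48-hour exposure. At the TGI there is no net growth.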

Columns and labels:
Assay in all cases: NCI-60 cell line screen, 48 h
[1] = system: 786-0 renal
[2] = system: A498 renal
[3] = system: A549 NSCLC
[4] = system: ACHN renal
[5] = system: BT-549 breast
[6] = system: CAKI-1 renal
[7] = system: CCRF-CEM leukemia
[8] = system: COLO 205 colon
[9] = system: DU-145 prostate
[10] = system: EKVX NSCLC
[11] = system: HCC-2998 colon
[12] = system: HCT-116 colon
[13] = system: HCT-15 colon
[14] = system: HL-60(TB) leukemia
[15] = system: HOP-62 NSCLC
[16] = system: HOP-92 NSCLC
[17] = system: HS 578T breast
[18] = system: HT29 colon
[19] = system: K-562 leukemia
[20] = system: KM12 colon
[21] = system: LOX IMVI melanoma
[22] = system: M14 melanoma
[23] = system: MALME-3M melanoma
[24] = system: MCF7 breast
[25] = system: MDA-MB-231 breast
[26] = system: MDA-MB-435
[27] = system: MDA-N
[28] = system: MOLT-4 leukemia
[29] = system: NCI-H226 lung
[30] = system: NCI-H23 lung
[31] = system: NCI-H460 lung
[32] = system: NCI/ADR-RES ovarian
[33] = system: OVCAR-3 ovarian
[34] = system: OVCAR-4 ovarian
[35] = system: OVCAR-5 ovarian
[36] = system: OVCAR-8 ovarian
[37] = system: PC-3 prostate
[38] = system: RPMI-8226 leukemia
[39] = system: RXF 393 renal
[40] = system: SF-268 CNS
[41] = system: SF-295 CNS
[42] = system: SF-539 CNS
[43] = system: SK-MEL-2 melanoma
[44] = system: SK-MEL-28 melanoma
[45] = system: SK-MEL-5 melanoma
[46] = system: SK-OV-3 ovarian
[47] = system: SN12C renal
[48] = system: SNB-19 CNS
[49] = system: SNB-75 CNS
[50] = system: SW-620 colon
[51] = system: T-47D breast
[52] = system: TK-10 renal
[53] = system: U251 CNS
[54] = system: UACC-257 melanoma
[55] = system: UACC-62 melanoma
[56] = system: UO-31 renal
[57] = system: IGROV1 ovarian
[58] = system: NCI-H522 lung
[59] = system: SR leukemia

Measured: TGI

COc1ccc(OCc2nc3cc(C(F)(F)F)ccc3nc2-c2ccccc2)cc1
not listed: [57] | [58] | [59]
> 100 µM: all other assays above

CCOC(=O)N/N=C(/OCC)c1ccccc1
not listed: [22] | [37] | [49]
> 100 µM: all other assays above
